Test results published in US20250221963A1 (GH RESEARCH IRELAND LIMITED, priority 2022, published 2025).
Several values for one entry are separate records, joined by “and”; a condition that tells them apart may be missing. Identical values can stand only once.

Tests used:
[1] = test system: patients with postpartum depression (PPD); assay: Clinical trial of inhaled 5-MeO-DMT in postpartum depression; conditions: PPD patient
Protocol: The single-arm, open-label clinical trial will involve 15 adult female patients with clinically diagnosed postpartum depression (PPD).
The second dose (12 mg) will only be administered if: • a. […] The 6 mg dose was safe and well-tolerated according to the investigator, • c. Any psychoactive effects (PsE) of the prior dose have subsided, and • d. Pre-dose vital parameters and forced expiratory volume in one second (FEV1) are in normal range, or if outside of the normal range, are not clinically significant according to the investigator. • 3. Similarly, a third dose (18 mg) will only be administered if: • a. […] The 12 mg dose was safe and well-tolerated according to the investigator, and • c. Any PsE of the prior dose have subsided, and • d. Pre-dose vital parameters and forced expiratory volume in one second (FEV1) are in normal range, or if outside of the normal range, are not clinically significant according to the investigator.
The patients will be assessed for a peak psychedelic experience (based on a patient-scored visual analogue scale, the PE scale), sedation, and other endpoints after dosing. Follow-up visits are planned for Day 1, and Day 7 after the dosing day.
The following criteria must be met by all patients considered for clinical trial participation: • 1. Is female and in the age range between 18 and 45 years (inclusive) at screening. • 2. Has a body mass index (BMI) in the range of 18.5 and 35 kg/m^2 (inclusive) at screening. • 3. Meets the trial criteria for PPD as assessed by a trial psychiatrist or registered psychologist: • a. Diagnosis of Major Depressive Disorder without psychotic features, confirmed by the Mini-International Neuropsychiatric Interview (MINI), with peri-partum onset that began no earlier than gestation and no later than the first 4 weeks postpartum. • b. Has a Montgomery-Åsberg Depression Rating Scale (MADRS) total score of equal to or greater than 28 at screening and pre-dose on Day 0. • 6. […] Patients must have a negative pregnancy test at screening and on the pre-test day (Day −1). • 5. Is willing to delay start of other antidepressant or anxiety medication until after the end of the trial at Day 7 and agrees to keep any psychotherapy unchanged during the trial.
A potential patient who meets any of the following key exclusion criteria will be excluded from participation in this trial: • 1. Has, based on history, psychiatric assessment, and evaluation of the MINI, a current or prior diagnosis of bipolar disorder, a manic or hypomanic episode, a psychotic disorder, Major Depressive Disorder (MDD) or other mood disorder with psychotic features, obsessive compulsive disorder, post-traumatic stress disorder (PTSD), autism spectrum disorder, borderline personality disorder, schizophrenia, delusional disorder, paranoid personality disorder, schizoaffective disorder, clinically significant intellectual disability, or any other psychiatric comorbidity that renders the patient unsuitable for the trial according to the investigator's judgment. • 2. Has one or more first or second degree relatives with a current or previously diagnosed bipolar disorder, psychotic disorder or other mood disorder (including MDD) with psychotic features. • 3. Is in the judgement of a trial psychiatrist or registered psychologist, at significant risk for suicide based on history, psychiatric assessment, and evaluation of suicidal ideation and suicidal behaviour based on the Columbia-Suicide Severity Rating Scale (C-SSRS). • 4. Has taken anti-depressive medication within 14 days or 5 half-lives (whichever is longer) prior to dosing (exception: within the last 5 weeks in the case of fluoxetine). • 5.

[2] = test system: Escherichia coli WP2 uvrA pKM101; assay: Bacterial mutation test, Escherichia coli; type: cell-based; conditions: up to 5000 μg/plate, absence and presence of S-9
Protocol: (§1) These conditions included treatments at concentrations up to 5000 μg/plate (the maximum recommended concentration according to current regulatory guidelines), in the absence and in the presence of a rat liver metabolic activation system (S-9).

[3] = test system: Salmonella typhimurium TA98, TA100, TA1535 and TA1537; assay: Bacterial mutation test, Salmonella typhimurium; type: cell-based; conditions: up to 5000 μg/plate, absence and presence of S-9
Protocol: as §1

## COc1ccc2[nH]cc(CCN(C)C)c2c1 [5-MeO-DMT]
[1]
  BIMF Adjustment Δ (Day 7): 1
  BIMF Infant Care Δ (Day 7): 0
  BIMF Management Δ (Day 7): 5
  BIMF Mother-Child Interaction Δ (Day 7): 2
  BIMF Psychological Well-being Δ (Day 7): 9
  BIMF Self-Care Δ (Day 7): 4
  BIMF Social Support Δ (Day 7): 1
  BIMF TOTAL Δ (Day 7): 13
  ECG (3 hours), safety laboratory analyses (7 days), CADSS (3 hours, 1 day, 7 days): unremarkable
  MADRS response and MADRS remission criteria: fulfilled standard criteria for MADRS response
  Reported adverse events (cramping left abdominal pain and headache, Day 0): mild, short-lasting and resolved spontaneously
  Time to clinical remission after administration according to the IDR: ≤ 2 h
  Tolerability of the inhalation procedure: well tolerated with no inhalation-related adverse events
[1]; 2 hr
  Total MADRS improvement: 24
[1]; 2 hr, baseline 29
  Total MADRS score: 5
[1]; Day 1
  BPRS Tension improvement: 5
  Total MADRS improvement: 29
[1]; Day 1, baseline 29
  Total MADRS score: 0
[1]; Day 7
  BIMF Adjustment % Improvement: 20.00%
  BIMF Infant Care % Improvement: 0.00%
  BIMF Management % Improvement: 18% and 17.86%
  BIMF Mother-Child Interaction % Improvement: 13.33%
  BIMF Psychological Well-being % Improvement: 20.45%
  BIMF Self-Care % Improvement: 44% and 44.44%
  BIMF Social Support % Improvement: 5.88%
  BIMF total score improvement: 14%
  Total MADRS improvement: 28
[1]; Day 7, Day 0 score 5, maximum 12
  BIMF functional domain Adjustment score: 6
[1]; Day 7, Day 0 score 6
  BIMF item 6 (people in my life that I can trust to care for my baby) score: 6
[1]; Day 7, Day 0 score 9, maximum 18
  BIMF functional domain Self-Care score: 13
[1]; Day 7, Day 0 score 12, maximum 12
  BIMF functional domain Infant Care score: 12
[1]; Day 7, Day 0 score 15, maximum 18
  BIMF functional domain Mother-Child Interaction score: 17
[1]; Day 7, Day 0 score 17, maximum 18
  BIMF functional domain Social Support score: 18
[1]; Day 7, Day 0 score 28, maximum 36
  BIMF functional domain Management score: 33
[1]; Day 7, Day 0 score 44, maximum 60
  BIMF functional domain Psychological Well-being score: 53
[1]; Day 7, baseline 29
  Total MADRS score: 1
[1]; Discharge
  BPRS Tension improvement: 5
[1]; shortly after administration
  Changes in vital parameters: temporary, clinically non-relevant increase in heart rate and blood pressure
[2]
  Induction of mutation: did not induce mutation
[3]
  Induction of mutation: did not induce mutation
